The record followed here is US20220387268A1, “OIL-IN-WATER MACROEMULSION” (SYMRISE AG, priority 2019, published 2022).

Each structure is given as a SMILES string.

One series can be described thus: water solubility. Type of series: physicochemical. As to conditions: room temperature.
Series [1] in a line: log P value (octanol:water). Type of series: physicochemical. The following applies: water/n-octanol. From the text: The partition coefficient (P) is the ratio of concentrations of a compound in a mixture of two immiscible solvents at equilibrium. This ratio is therefore a comparison of the solubility of the solute in these two liquids. In the chemical and pharmaceutical sciences, both phases usually are solvents. Most commonly, one of the solvents is water, while the second is hydrophobic such as 1-octanol.
Log P=log 10(Partition Coefficient)
Partition Coefficient,P=[organic]/[aqueous]

With `CCCCCC1CCC(=O)O1` (stereo not shown) [ALDEHYD C18 SOG.], the Water solubility in “water solubility” is 2373.1 µg/mL.

For orientation: log P means a log measure of how a compound divides between an organic and an aqueous phase. A lower log P goes with a more hydrophilic compound. In “water solubility”, `CC(C=O)Cc1ccc(C(C)C)cc1` (stereo not shown) had a Water solubility of 17.8 µg/mL. Besides, in series [1], the “log P” value worked out at 3.91.

Molecule `O=Cc1ccc2c(c1)OCO2` [HELIOTROPIN/PIPERONAL] returned a Water solubility in the series “water solubility” of 2260.1 µg/mL. Also, in series [1], the “log P” value is on record as 1.77.

On to `CCCCCC1C(=O)CCC1CC(=O)OC` (stereo not shown) [HEDION], for which the Water solubility in the series “water solubility” came out at 401.5 µg/mL.

With `O=C1CCCCCCCCCCCC(=O)OCCO1` [ETHYLENBRASSYLAT], the Water solubility in “water solubility” turned out to be 20.9 µg/mL. For the same molecule, the “log P” value in series [1] amounted to 4.71.

Turning to `C=CC(C)CCCC(C)(C)O` (stereo not shown) [DIHYDROMYRCENOL], in “water solubility”, the Water solubility came to 671.2 µg/mL. The lipophilicity (log P) in series [1] is on record as 3.47.

`CCCC(=O)OC(C)(C)Cc1ccccc1` [DIMETHYLBENZYLCARBINYLBUTYRAT]: in series [1], the “log P” value was 4.43.

On to `CCC(C)(O)CCCC(C)C` (stereo not shown) [TETRAHYDROLINALOOL], for which the Water solubility in “water solubility” was found to be 492.4 µg/mL. Besides, the lipophilicity (log P) in series [1] is 3.6.

`CC(=O)OC1CCCCC1C(C)(C)C` (stereo not shown) [AGRUMEX LC]: in the series “water solubility”, the Water solubility was found to be 17.6 µg/mL.

Regarding `CCCCCC/C(C=O)=C\c1ccccc1` [HEXYLZIMTALDEHYD ALPHA], the Water solubility in the series “water solubility” was 1.2 µg/mL. The “log P” value in series [1] is on record as 4.82.
